Key:
[1] = tested on: primary cultured hepatocytes; details: 10 mM PTU, 1 hour and 3 hours after adding
Description: Rat hepatocytes, which were isolated by collagenase prefusion, are placed into a 24-well plate coated with collagen to have 10^5 cells/well and cultured for 4 hours. After removing the cells not fixed to the well, 10 mM of PTU was added to the cells and each of the 3 cultured media prior to adding the PTU, of 1 hour after adding the PTU, and of 3 hours after adding PTU, was sampled. After 3 hours of culturing, 0.5% of Triton-X100 was added to destroy the cells and a suspended solution was obtained. OCT, ALT and AST levels in each of the sampled cultured medium and the suspended solution after cell destruction were measured. […] Based upon an activity of the suspended solution as 100%, leakage rates of OCT, AST and ALT were calculated in each cultured medium obtained by sampling.

[2] = Rat thyrotoxicosis model (T3 administration); type: in vivo
Description: Each of blood OCT, AST and ALT levels was measured before and after the administration.

[3] = liver homogenate after 10 days T3, vs control group

With `CCCc1cc(=O)[nH]c(=S)[nH]1` [PTU, propylthiouracil] the “levels of AST, ALT and OCT in cultured medium” value ([1]; FIG. 1) was “elevated” and the “OCT leakage rates compared to the ALT leakage rates” value ([1]; suspended solution after cell destruction = 100%) was “higher”.
For `N[C@@H](Cc1cc(I)c(Oc2ccc(O)c(I)c2)c(I)c1)C(=O)O` [T3], the “ALT content in the liver” value [2, 3] was “elevated significantly”, the “AST content in the liver” value [2, 3] was “elevated significantly” and the “blood OCT level” value ([2]; male Wistar rats, T3 0.1 mg/kg/day s.c. for 10 days, ELISA, control group 14.0±1.6) was 11.9 ± 2.5 ng/mL. The “blood ALT level” value ([2]; male Wistar rats, T3 0.1 mg/kg/day s.c. for 10 days, control group 8.2±0.8) was 11.2±0.6 IU/L, the “blood AST level” value ([2]; male Wistar rats, T3 0.1 mg/kg/day s.c. for 10 days, control group 29.0±5.1) was 40.0±6.51 IU/L and the body weight ([2]; male Wistar rats, T3 0.1 mg/kg/day s.c. for 10 days, control group 303±15.9 g) was 266 ± 5.8 g.

Source: patent publication US20110189709A1, “METHOD FOR DETECTING HEPATIC INJURY DUE TO ANTITHYROID DRUG” (YAMASA CORPORATION, priority 2010, published 2011)
